Legend:
primary cortical neurons [1] = assay: Neurite outgrowth assay of primary cortical neurons (image-based HCS) against paclitaxel-induced neurotoxicity; type: cell-based, mouse; settings: for activity at 0.01 µM / activity at 1 µM: Mus musculus, Primary cortical neuron; for activity at 0.01 µM: read-out: C: Neurite outgrowth (% of control) of test compound (10 nM) + paclitaxel (1 μM); for activity at 1 µM: read-out: D: Neurite outgrowth (% of control) of test compound (1000 nM) + paclitaxel (1 μM)
Excerpt: (§1) Herein, we wish to report that an in vitro neurite outgrowth assay of cortical neurons integrated with an image-based high-content screening (HCS) platform is used to evaluate a commercially available library of 78 minoxidil-related derivatives,[22] leading to the identification of a series of analogues able to prevent or alleviate paclitaxel-induced neurotoxicity. The project began with screening compounds with the primary culture of cortical neurons from neonatal mice. More specifically, cerebral cortex neurons cultured from P0 C57BL/6J mouse pups were incubated with a test compound (10 and 1000 nM) prior to paclitaxel (1 μM) treatment. Subsequently, both neurite outgrowth and synaptogenesis were measured to evaluate the test compounds’ neuroprotective capacity. […] This unique feature is preserved for the core-structure screening of our in-house library in the following subject. Moreover, the substituent at the C4 position appears flexible in terms of structural diversity. Collectively, CSV0A024807, the only one displaying the best neuroprotective potency on both neurite outgrowth and synaptogenesis assays, was thus elected as a potential hit compound for further development.
(§2) Primary cortical or DRG cells were fixed with 4% paraformaldehyde for 15 min following compound and paclitaxel treatment. After washing with PBS, the fixed cells were permeabilized with PBS containing 0.05% Triton X-100 for 20 min and then blocked with commercial blocking buffer (#GTX30963; GeneTex, USA) at room temperature for 1 h. Subsequently, the cortical cells were stained for the extending processes and synaptic puncta by using anti-MAP2 (#MBS502140, 1:500; Mybiosource, USA) and anti-synaptophysin (#ab32127, 1:500; Abcam, UK) overnight. DRG cells were stained for the neurite and neuron nucleus by using anti-β III tubulin (#D71G9, 1:600; Cell Signaling, USA) and anti-NeuN monoclonal antibody (#MAB377, 1:400; Millipore, USA) overnight. On the second day, the samples were washed for 30 min with wash buffer and incubated with secondary antibodies (Alexa-488, 647 1:600; Thermo Fisher, USA) and 4 μg/mL Hoechst 33258 (#94403-1ML, 1:100; Merck, USA) at room temperature for 1 h. In the initial experiments of screening the potential neuroprotective compound for CIPN, ImageXpress^Micro (IXM) high-content imaging system (Molecular Devices, USA) driven by MetaXpress software was used. Images of treated cells were automatically acquired by using a 10× objective. Twenty-one images per well were taken in each of three channels (DAPI, FITC, and Cy5) to create a whole view of the entire neural network. The integrity of the neural network was evaluated using TIF images by importing them into MetaXpress software for analysis using the module for multiparameter, such as Neurite Outgrowth, Cell Scoring, and Transfluor. Furthermore, the score of synaptogenesis was analyzed in AcuityXpress software (Molecular Devices, USA).

primary cortical neurons [2] = assay: Synaptogenesis assay of primary cortical neurons (image-based HCS) against paclitaxel-induced neurotoxicity; type: cell-based, mouse; settings: for activity at 0.01 µM / activity at 1 µM: Mus musculus, Primary cortical neuron; for activity at 0.01 µM: read-out: A: Synaptogenesis (% of control) of test compound (10 nM) + paclitaxel (1 μM); for activity at 1 µM: read-out: B: Synaptogenesis (% of control) of test compound (1000 nM) + paclitaxel (1 μM); for attenuation of synaptogenesis inhibited by paclitaxel (in words): test compound 10 and 1000 nM prior to paclitaxel 1 μM, Figure 1A
Excerpt: as §1, §2

[3] = test compound 10 nM + paclitaxel 1 μM, mean ± SE
[4] = test compound 1000 nM + paclitaxel 1 μM, mean ± SE

| Structure (SMILES) | activity at 0.01 µM (primary cortical neurons [1]; [3]) [%] | activity at 1 µM (primary cortical neurons [1]; [4]) [%] | activity at 0.01 µM (primary cortical neurons [2]; [3]) [%] | activity at 1 µM (primary cortical neurons [2]; [4]) [%] | also measured |
| --- | --- | --- | --- | --- | --- |
| CCN(CC)c1cc(N/N=C/c2ccccc2O)nc(N(CC)CC)n1 [CSV0B018834] | 39 ± 3 | 39 ± 2 | 30 ± 3 | 31 ± 3 | – |
| CN(C)c1cc(N/N=C/c2ccc(Cl)cc2Cl)nc(N(C)C)n1 [CSV0A047585] | 57 ± 2 | 57 ± 2 | 67 ± 2 | 56 ± 0.2 | – |
| CC(C)(C)c1ccc(C(=O)NNc2cc(N3CCOCC3)nc(N3CCOCC3)n2)cc1 [CSV0B026196] | 83 ± 5 | 65 ± 4 | 36 ± 2 | 32 ± 1 | – |
| Oc1ccc(/C=N/Nc2cc(N3CCOCC3)nc(N3CCOCC3)n2)cc1 [CSV0A013029] | 58 ± 2 | 54 ± 5 | 72 ± 2 | 84 ± 6 | attenuation of synaptogenesis inhibited by paclitaxel (in words) (primary cortical neurons [2]): significantly attenuated |
| Oc1ccc(Cl)cc1/C=N/Nc1cc(N2CCCC2)nc(N2CCCC2)n1 [CSV0A041619] | – | – | – | – | activity at 0.01 µM (primary cortical neurons [1]): 62 ± 2%; activity at 1 µM (primary cortical neurons [1]): 61 ± 2%; activity at 0.01 µM (primary cortical neurons [2]): 54 ± 0.03%; activity at 1 µM (primary cortical neurons [2]): 62 ± 2% |
| COc1cc(/C=N/Nc2cc(N3CCCC3)nc(N3CCCC3)n2)ccc1O [CSV0B016174] | 86 ± 3 | 76 ± 4 | 43 ± 3 | 36 ± 4 | – |
| O=[N+]([O-])c1cc(/C=N/Nc2cc(N3CCCCCC3)nc(N3CCCCCC3)n2)cc2c1OCO2 [CSV0A024811] | 69 ± 7 | 60 ± 3 | 52 ± 1 | 46 ± 4 | – |
| CN(C)c1cc(N/N=C/c2cccs2)nc(N(C)C)n1 [CSV0A055769] | 68 ± 3 | 62 ± 2 | 83 ± 1 | 97 ± 8 | attenuation of synaptogenesis inhibited by paclitaxel (in words) (primary cortical neurons [2]): significantly attenuated |
| Clc1ccc(/C=N/Nc2cc(N3CCCC3)nc(N3CCCC3)n2)cc1 [CSV0A024814] | 81 ± 0.005 | 67 ± 2 | 46 ± 1 | 31 ± 1 | – |
| O=C(NNc1cc(N2CCOCC2)nc(N2CCOCC2)n1)c1ccccc1 [CSV0A051549] | 71 ± 1 | 68 ± 1 | 86 ± 6 | 77 ± 7 | protective effect in the neurite outgrowth assay (in words) (primary cortical neurons [1]; test compound 10 and 1000 nM prior to paclitaxel 1 μM, Figure 1A): significant protective effect |
| CCN(CC)c1cc(N/N=C/c2ccc(Cl)cc2)nc(N(CC)CC)n1 [CSV0A020149] | 52 ± 2 | 48 ± 3 | 43 ± 1 | 36 ± 1 | – |
| CN(C)c1cc(N/N=C/c2ccc(Cl)cc2)nc(N(C)C)n1 [CSV0A027459] | 76 ± 7 | 79 ± 11 | 35 ± 1 | 37 ± 2 | – |
| CCN(CC)c1cc(NNC(=O)CCc2ccccc2)nc(N(CC)CC)n1 [CSV0B009488] | 35 ± 4 | 44 ± 3 | 38 ± 3 | 34 ± 3 | – |
| CCCN(CCC)c1cc(N/N=C/c2ccc(Cl)cc2)nc(N(CCC)CCC)n1 [CSV0A061665] | 37 ± 7 | 27 ± 3 | 27 ± 3 | 27 ± 5 | – |
| O=[N+]([O-])c1ccc(/C=N/Nc2cc(N3CCCC3)nc(N3CCCC3)n2)cc1 [CSV0A024812] | 53 ± 3 | 60 ± 1 | 55 ± 6 | 62 ± 3 | – |
| COc1cc(/C=N/Nc2cc(N(C)C)nc(N(C)C)n2)ccc1O [CSV0A055768] | – | – | – | – | activity at 0.01 µM (primary cortical neurons [1]): 71 ± 2%; activity at 1 µM (primary cortical neurons [1]): 74 ± 6%; activity at 0.01 µM (primary cortical neurons [2]): 35 ± 4%; activity at 1 µM (primary cortical neurons [2]): 33 ± 0.2% |
| O=[N+]([O-])c1ccc(/C=N/Nc2cc(N3CCOCC3)nc(N3CCOCC3)n2)cc1 [CSV0A024806] | – | – | – | – | C: Neurite outgrowth (% of control) of test compound (10 nM) + paclitaxel (1 μM) (primary cortical neurons [1]; [3]): 70±3 % of control; D: Neurite outgrowth (% of control) of test compound (1000 nM) + paclitaxel (1 μM) (primary cortical neurons [1]; [4]): 68±6 % of control; A: Synaptogenesis (% of control) of test compound (10 nM) + paclitaxel (1 μM) (primary cortical neurons [2]; [3]): 68±6 % of control; B: Synaptogenesis (% of control) of test compound (1000 nM) + paclitaxel (1 μM) (primary cortical neurons [2]; [4]): 78±5 % of control |

| Structure (SMILES) | activity at 0.01 µM (primary cortical neurons [1]; [3]) [%] | activity at 1 µM (primary cortical neurons [1]; [4]) [%] | activity at 0.01 µM (primary cortical neurons [2]; [3]) [%] | activity at 1 µM (primary cortical neurons [2]; [4]) [%] | also measured |
| --- | --- | --- | --- | --- | --- |
| CCN(CC)c1cc(N/N=C/c2cccc(O)c2)nc(N(CC)CC)n1 [CSV0A007879] | 42 ± 5 | 35 ± 4 | 38 ± 3 | 26 ± 5 | – |
| C(=N\Nc1cc(N2CCCCCC2)nc(N2CCCCCC2)n1)/c1ccncc1 [CSV0A061667] | 82 ± 6 | 82 ± 6 | 40 ± 6 | 41 ± 7 | – |
| CN(C)c1ccc(/C=N/Nc2cc(N3CCCC3)nc(N3CCCC3)n2)cc1 [CSV0A027460] | 77 ± 1 | 63 ± 3 | 47 ± 1 | 33 ± 3 | – |
| CN(C)c1cc(NNC(=O)c2ccccc2O)nc(N(C)C)n1 [CSV0A2327S0] | 55 ± 1 | 53 ± 5 | 42 ± 2 | 41 ± 5 | – |
| CCN(CC)c1cc(NNC(=O)c2ccccc2OC)nc(N(CC)CC)n1 [CSV0A008237] | 56 ± 1 | 50 ± 9 | 45 ± 4 | 45 ± 8 | – |
| O=C(CCc1ccccc1)NNc1cc(N2CCCC2)nc(N2CCCC2)n1 [CSV0C019163] | – | – | – | – | activity at 0.01 µM (primary cortical neurons [1]): 68 ± 7%; activity at 1 µM (primary cortical neurons [1]): 74 ± 1%; activity at 0.01 µM (primary cortical neurons [2]): 49 ± 4%; activity at 1 µM (primary cortical neurons [2]): 53 ± 1% |
| CN(C)c1cc(NNC(=O)CCc2ccccc2)nc(N(C)C)n1 [CSV0B008273] | – | – | – | – | activity at 0.01 µM (primary cortical neurons [1]): 46 ± 3%; activity at 1 µM (primary cortical neurons [1]): 53 ± 2%; activity at 0.01 µM (primary cortical neurons [2]): 39 ± 2%; activity at 1 µM (primary cortical neurons [2]): 36 ± 2% |
| COc1ccc(/C=N/Nc2cc(N(C)C)nc(N(C)C)n2)cc1 [CSV0A034004] | 54 ± 7 | 55 ± 4 | 65 ± 6 | 76 ± 2 | – |
| CN(C)c1cc(NNC(=O)c2ccc(C(C)(C)C)cc2)nc(N(C)C)n1 [CSV0B002001] | 44 ± 3 | 44 ± 3 | 35 ± 3 | 35 ± 3 | – |
| O=[N+]([O-])c1ccc(/C=N/Nc2cc(N3CCCCC3)nc(N3CCCCC3)n2)cc1 [CSV0A011998] | 77 ± 5 | 61 ± 6 | 75 ± 1 | 55 ± 2 | – |
| Oc1ccc(Br)cc1/C=N/Nc1cc(N2CCOCC2)nc(N2CCOCC2)n1 [CSV0A013030] | 76 ± 5 | 89 ± 11 | 26 ± 2 | 26 ± 3 | – |
| Oc1cccc(/C=N/Nc2cc(N3CCCCC3)nc(N3CCCCC3)n2)c1 [CSV0B001120] | 95 ± 9 | 82 ± 2 | 43 ± 5 | 41 ± 5 | – |
| CCOc1ccc(Nc2nc(/N=C/c3c(OC)c(C(=O)Nc4ccccc4C)cc4ccccc34)c([N+](=O)[O-])c(NCc3ccccc3)n2)cc1 [CSVOD047961] | 90 ± 2 | 95 ± 2 | 30 ± 3 | 36 ± 1 | – |
| O=C(CCc1ccccc1)NNc1cc(N2CCOCC2)nc(N2CCOCC2)n1 [CSV0C009114] | – | – | – | – | activity at 0.01 µM (primary cortical neurons [1]): 70 ± 7%; activity at 1 µM (primary cortical neurons [1]): 65 ± 3%; activity at 0.01 µM (primary cortical neurons [2]): 48 ± 5%; activity at 1 µM (primary cortical neurons [2]): 49 ± 3% |
| COc1ccccc1/C=N/Nc1cc(N2CCCC2)nc(N2CCCC2)n1 [CSV0A055771] | 68 ± 6 | 68 ± 3 | 36 ± 2 | 40 ± 8 | – |
| Clc1ccc(/C=N/Nc2cc(N3CCOCC3)nc(N3CCOCC3)n2)cc1 [CSV0A024808] | 91 ± 1 | 89 ± 4 | 27 ± 1 | 25 ± 1 | – |
